{
  "source": "patent US11696881B2",
  "about": "“Oral care compositions comprising hops beta acids and fluoride ions” (The Procter & Gamble Company, priority 2019, dated 2023)",
  "test_system": "plaque biofilm grown from pooled human saliva (3-day biofilm)",
  "experiment": "in vitro plaque glycolysis model (iPGRM): acid production and acid inhibition",
  "type": "cell-based",
  "procedure": "Acid production and acid inhibition were determined with the in vitro plaque glycolysis model (iPGRM). The purpose of this technique is to provide a simple and quick method for determining if compounds have an influence on the metabolic pathways that plaque microorganisms utilize to produce toxins that adversely affect gingival health.\nThe in vitro plaque glycolysis model (iPGRM) is a technique in which plaque is grown from human saliva and treated with various agents to determine anti-glycolytic activity of treatments. When bacteria convert sugar into energy with the help of enzymes, acids are formed. These acids demineralize and damage the dental enamel. […]\nA plaque biofilm was grown on glass rods from fresh pooled human saliva and Trypticase Soy Broth (TSB) at 37° C. over […] by dipping glass rods into and out of media in a reciprocating motion. […] The pH of the media solutions was then measured to determine the amount of glycolysis inhibition relative to a negative control.\nOn Day 1, new glass rods (5 mm×90 mm) were polished approximately 25 mm from the untapered end on a lathe with silicon carbide paper of 240, 320, 400, and 600 grit used sequentially. […] After polishing, rods were stored until ready to run test. […]",
  "data": [
    {"compound": "[H]/N=C(\\N/C(=N/[H])NCCCCCCNC(=N)NC(=N)Nc1ccc(Cl)cc1)Nc1ccc(Cl)cc1", "note": "[1% Chlorhexidine, Chlorhexidine]", "values": [
      {"measurement": "Acid Production (ΔpH) Mean", "setting": "Table 2, 2 min treatment with 1:5 slurry in water", "value": "0.30 ΔpH"},
      {"measurement": "Mean Acid Inhibition (%) Mean", "setting": "Table 2, relative to negative control Crest Cavity Protection", "value": 80.77, "unit": "%"}
    ]}
  ]
}
